Assay results as given in patent US7253177B2, “Synthesis and antimalarial activity of pyrrolo[3,2-f]quinazoline-1,3-diamine derivatives” (United States of America as Represented by the Secretary of …, priority 2004, dated 2007).
Values after ≈ are worked out from the molar mass of the structure shown. Values joined by “and” are separate entries in the source; they are usually repeats but may differ in a detail not shown here. Equal entries are not always repeated.

Assays:
[1] = test system: Plasmodium falciparum TM91C235 (Southeast Asia Isolates); test: In vitro antimalarial study, [3H]hypoxanthine uptake, TM91C235 clone; assay type: cell-based
Experimental: B. Antimalarial Activities: (a). In Vitro Antimalarial Studies. The in vitro assays were conducted by using a modification of the semiautomated microdilution technique of Desjardins et al and Chulay et al.. Four P. falciparum malaria parasite clones, from CDC Indochina III (W-2), CDC Sierra Leone I (D-6), Southeast Asia Isolates (TM91C235) and RCS (Isolates from Brazil) were utilized in susceptibility testing. They were derived by direct visualization and micromanipulation from patient isolates. The W-2 clone is susceptible to mefloquine but resistant to chloroquine, sulfadoxine, pyrimethamine, and quinine, whereas the D-6 clone is naturally resistant to mefloquine but susceptible to chloroquine, sulfadoxine, pyrimethamine and quinine. Test compounds were initially dissolved in DMSO and diluted 400 fold in RPMI 1640 culture medium supplemented with 25 mM Hepes, 32 mM NaHCO3 and 10% Albumax I (Gibco BRL, Grand Island, N.Y.). These solutions were subsequently serially diluted two-fold with a Biomek 1000 (Beckman, Fullerton, Calif.) over 11 different concentrations. The parasites were exposed to serial dilutions of each compound for 48 hrs and incubated at 37° C. with 5% O2, 5% CO2 and 90% N2 prior to the addition of [^3H]hypoxanthine. After a further incubation of 18 hrs, parasite DNA was harvested from each microtiter well using Packard Filtermate 196 Harvester (Meriden, Conn.) onto glass filters. Uptake of [^3H]hypoxanthine was measured with a Packard Topcount Scintillation. Concentration-response data were analyzed by a non-linear regression logistic dose response model and the IC50 values (50% inhibitory concentrations) for each compound were calculated. (Table 3). (b). In Vivo Antimalarial Studies against P. berghei in mice: The in vivo efficacy of the artelinic acid analogs were determined in a modified Thompson test. This test measures the survivability of mice and parasitemia clearance following administration of drug on days 3-5 post infection. In brief, 5×10^6 P. berghei-infected erythrocytes (KBG-173 strain) were inoculated intraperitoneally to female mice that weighed 24-30 g. By day three post-infection, parasitemia ranged from 1.0-3.7%. Each drug, dissolved in 5% sodium bicarbonate, was administered PO twice daily from day 3-5 post-infection. Total doses for each drug ranged from 1.5-384 mg/kg with 8 mice included in each dosage group. The percent suppression of parasitemia in the treated mice compared to the untreated controls was determined for each test compound; the SD-50 (fifty percent suppression dose) and SD-90 were determined from a non-linear regression logistic dose response fit at day 6 parasitemia data. Survival of mice to day 60 post-infection was considered a cure (C). Compounds were considered active (A) when the survival time of the treated mice was greater than twice the control mice, i.e., 12-14 day (Table 4-5). (c). Sporozoite Induced Test Each compound is ground with a mortar & pestle and suspended in 0.5% hydroxyethylcellulose—0.1% Tween 80 for compounds to be administered PO and those given SC are suspended in peanut oil. Each compound is prepared at 3 different dose levels as requested by WRAIR. Compounds are administered either PO or SC to mice once 4 hr before inoculation of sporozoites. Four-week-old male CD-1 mice, purchased from Charles River and weighing 16-17 g, are placed 5 per cage and allowed to acclimate for 4 days before being treated and then inoculated with sporozoites. They are fed food and water ad-lib and maintained at 76° F. with 12 hr light and 12 hr darkness. The cages and water bottles are changed biweekly. The mice are weighed on Days 0, 3 and 6 then biweekly when blood films are taken. Plasmodium yoelii (17×) is used to infect mice that will be used to infect the mosquitoes. Mice are given a single dose of test compound 4 hr before being inoculated intraperitoneally with 2.5×10^5 sporozoites of Plasmodium yoelii on Day 0. […]

P. vivax AMRU-1 strain = test: Antimalarial activity against P. vivax in Aotus monkey; assay type: in vivo, Plasmodium vivax; conditions: for # Monkey Cured/# Monkey Used, P. vivax: cured = parasitemia free for 100 days post treatment; for outcome against P. vivax at 1 and 3 mg/kg/day x3: po, antifolate-resistant clone with four DHFR mutations
Experimental: (e). Toxicity Study in Aotus monkey: Protocol: Two malaria double cured Aotus weighing 1027-695 grams respectively received single dose of 3 mg/kg orally of the two compounds 2b and 3e. The monkeys were weighed and pre-bleed for CBC and Chemistry (ALT, BUN, Creatinine) determination, and again three, seven and 15 days post treatment. Signs of toxicity such as anorexia, vomiting, diarrhea or behavior changes were recorded. […] (f). Antimalarial Activity against P. falciparum in Aotus monkey: Protocol: Six (6) malaria naive Aotus lemurinus lemurinus (weigh 787-978 grms) were divided into two groups of two Aotus each plus two controls (MN13177 male and MN 13153 male) and infected with 5×10^6 P. falciparum FVO malaria parasites with 1 ml of an appropriate dilution in RPMI media intravenously on the saphenous vein. When their parasitemia reached 5×10^4 parasites/ul, treatment was started. Giemsa-stained thick blood smears were prepared daily with a prick in the ear marginal vein and parasites enumerated by the Earle and Perez method. Group 1 Aotus received 3e at 1 mg/kg once a day×three days. Group 2 Aotus received 2b at 1 mg/kg once a day×three days. The monkeys were weight and pre-bled for CBC and Chemistry (ALT, BUN, Creatinine) determination, and on day 4 post-treatmetne (PT). Bleedings for Pk determinations were carried out on day 1 PT at time 0, 1 hr, 7:30 hr and 24 hr PT. Group 1 (receiving 3e) animals cleared the parasitemias on day 3 post treatment (PT) and remained negative up to 100 days PT. In group 2 (receiving 2b), one animal cleared on day 3 PT and the other one on day 4 PT remaining negative up to 100 days PT. […] (g). Antimalarial Activity against P. vivax in Aotus monkey: Protocol: Fourteen (14) P. falciparum cured Aotus l. lemurinus monkeys (male and female) (weight 700-925 grms) were infected intravenously with 5×10^6 parasites of the P. vivax AMRU-1 strain diluted in RPMI media obtained from a donor and divided into two larger groups of 6 monkeys each (Group I and Group II) (2 monkeys per dose level), that received 3e and 6 monkeys (2 monkeys per dose level) that received 2b daily at 0.5, 1.0 and 3 mg/kg/day for a total of 3 days. Two monkeys were left has untreated controls. Treatment started when parasitemia reached 5,000 parasites×cc/mm on day 6 PI. Daily food intake was documented. Daily Giemsa-stained thick blood smears were prepared from a prick in the marginal ear vein and parasites enumerated by the Earle and Perez method. The animals were weighed at weekly intervals. Blood samples for Pk determination were collected at the following time points as follows: Day 0: CBC and chemistry panel (ALT. Creatinine and BUN); Day 4: CBC and chemistry Panel. CBC and chemistry panels were done the day prior to first dose and 24 hours after last dose and at weekly intervals thereafter. […] The other monkeys received 1 and 3 mg/kg of 3e remained negative until day 100 PT. In Group II, all monkeys except for one that received 3 mg/kg of 2b failed treatment and were retreated on day 3 PT with 3e at either 0.25, 0.5 or 1 mg/kg for three days. In the monkeys that received re-treatment at 0.25 mg/kg, one cleared on day 4 PT but needed to be treated with Mefloquine on day 8 PT due to a low platelet count. The other animals that had not been cleared by day 6 PT were treated with Mefloquine. […] P. vivax is known to be very drug resistant to antifolates. (h). Presumptive Causal Prophylactic Test against P. cynomolgi in Rhesus monkey: Protocol: […]

| SMILES | IC50 TM91C235 ([1]; P. falciparum TM91C235 clone) | activity against P. vivax at 0.5 and 1 mg/kg x3 (P. vivax AMRU-1 strain) | # Monkey Cured/# Monkey Used, P. vivax (P. vivax AMRU-1 strain; 0.5 mg/kg/day x 3 days) | # Monkey Cured/# Monkey Used, P. vivax (P. vivax AMRU-1 strain; 1 mg/kg/day x 3 days) | # Monkey Cured/# Monkey Used, P. vivax (P. vivax AMRU-1 strain; 3 mg/kg/day x 3 days, 3 mg/kg/day) | outcome against P. vivax at 1 and 3 mg/kg/day x3 (P. vivax AMRU-1 strain) | IC50 ([1]; Plasmodium falciparum, read-out: IC50 TM91C235) | outcome against P. vivax at 0.5 mg/kg (P. vivax AMRU-1 strain; 0.5 mg/kg/day x 3 days, two monkeys) | # Monkey Cured/# Monkey Used, P. vivax (P. vivax AMRU-1 strain; 3 mg/kg/day x 3 days) | remained negative until day PT (P. vivax AMRU-1 strain; P. vivax, 1 and 3 mg/kg x 3 days) |
| --- | --- | --- | --- | --- | --- | --- | --- | --- | --- | --- |
| CCOC(=O)Nc1nc(NC(=O)OCC)c2c(ccc3c2ccn3Cc2ccccc2C(F)(F)F)n1 [Compound 2b] | >250 ng/mL | not active | 0/2 | 0/2 | one out of two and 1/2 | less active | – | – | – | – |
| CC(=O)N(C(C)=O)c1nc(N(C(C)=O)C(C)=O)c2c(ccc3c2ccn3Cc2ccccc2C(F)(F)F)n1 [Compound 3e, 1,3-Bis(diacetylamino)-7-(2-trifluoromethyl)benzyl-7H-pyrrolo[3,2-f]quinazoline] | – | – | 0/2 | 2/2 | – | cured and 4/4 | 0.0845 ng/mL (≈ 0.161 nM) | suppressed the parasitemia but needed re-treatment on day 10 PT | 2/2 | 100 days |
